Assay results as given in patent US9376499B2, “PAR-1 activation by metalloproteinase-1 (MMP-1)” (Tufts Medical Center, Inc., priority 2009, dated 2016).
Blank lines part the entries; values can stand above or below the compound they belong to. No end group written: not given here.

Key:
[1] = Carotid artery FeCl3 injury arterial thrombosis model; format: in vivo, guinea pig; settings: bivalirudin 0.18 mg/kg i.v.; from 13 min without
Text: To assess the efficacy on arterial thrombosis by blockade of thrombin, MMP-1, or PAR1, a standard carotid artery FeCl3 injury model was used in guinea pigs. FeCl3 causes denudation of the artery and exposure of type I collagen and other subendothelial matrix proteins. The effects of blocking thrombin with bivalirudin, MMP-1 with FN-439, and PAR1 with either the small molecule antagonist RWJ-56110 or the P1pal-7 pepducin on arterial thrombosis were then compared using a dopier probe.
For these arterial thrombosis experiments, 10 min after i.v. administration of vehicle (−), bivalirudin, RWJ-56110, P1 pal-7 or FN-439 (n=4-5) through the jugular vein at the indicated concentrations, the right carotid arteries were injured for 20 min using a 24 mm^2 piece of Bio-Rad Trans-Blot paper soaked in 20% FeCl3. Arterial flow 5 mm distal to the site of injury was measured with a 0.5 V Doppler probe (Transonic Systems). An arterial occlusion was defined as a flow rate of <0.01 V for ≧5 min. Doppler measurements were terminated at the 30 min time point following injury (* designates p<0.05).

PAR1 [2] = assay: Release of PAR1 N-terminal cleavage peptide from gel-filtered platelets (dot blot, IIaR-A antibody); format: cell-based, human
Text: To further understand how collagen is able to activate significant amounts of endogenous MMP-1 collagenase activity on the surface of platelets, experiments were devised to determine if PAR-1 is cleaved in either an autocrine or paracrine manner following exposure to collagen. Using a monoclonal antibody raised against the amino-terminal thrombin-cleavage peptide region of PAR1, residues 32-46 (Loew et al., 2000), the relative abilities of thrombin, MMP-1 and collagen to cause cleavage of platelet PAR1 was assessed. Gel filtered platelets were treated for 10 min with thrombin (3 nM), MMP-1 (3 nM), collagen (5 μg/ml), in the presence or absence (PBS buffer) of 0.00013 U hirudin or 5 μM FN-439 at 37° C. Supernatants were concentrated 20-fold and applied to nitrocellulose membranes, then probed with the IIaR-A monoclonal antibody. The PAR1 N-terminal thrombin deavage peptide (A26-R41) and PAR1 flexible linker peptide (N-acetyl-T67-L84 -C) (Kuliopulos et al., 1999) served as positive and negative controls (100 ng), respectively.
These platelets were then stimulated with collagen (5 μg/ml) for 10 min. at 37° C. Supernatants were concentrated 20-fold and applied to nitrocellulose membranes, then probed with the IIaR-A monoclonal antibody. […] FN-439, or an MMP1-blocking antibody (20 μg/ml) but not by thrombin inhibitor, hirudin (see FIG. 1E, FIG. 1G).

platelets [3] = assay: Collagen-dependent aggregation of gel-filtered human platelets (light transmittance); format: cell-based; settings: for inhibition (loss) of collagen-induced platelet aggregation: 5 μg/ml collagen, 1,10-PA 100 μM, MMP-200 200 nM, FN-439 3 μM, RWJ-56110 1 μM, PAR1 Ab 75 μg/ml, pepducins 3 μM, PPACK 200 μM, hirudin 1 U/ml
Description: Platelet pellets and their supernatants were prepared as follows. […] following established informed consent procedures. […] Alternatively, whole blood was obtained from Hartley Sprague guinea pigs (drawn from the vena cava) into 3% citrate plus 10 U/ml heparin. Washed platelets from the guinea pigs were prepared in PIPES buffer. Platelet aggregation was measured with a Chronolog 560VS/490-2D aggregometer using modified PIPES buffer as a blank. Samples were incubated for 5 min in the presence of inhibitors and 1.8 mM CaCl2 prior to addition of agonist. All reactions were in final volumes of 250 μl at 37° C. while stirring at 900 rpm.
The effect of pharmacologic blockage of metalloproteases or PAR1 on collagen-dependent platelet aggregation was then tested (see FIG. 5). Gel-filtered platelets from healthy individuals (supplemented with 0.3 mg/ml fibrinogen) were challenged with 5 μg/ml collagen in the presence or absence (0.2% DMSO vehicle) of the indicated inhibitors and allowed to stir at 900 rpm in an aggregometer cuvette (250 μL) at 37° C.
In FIG. 5A, platelet aggregation was monitored by light transmittance.

platelets [4] = assay: Platelet thrombus formation on collagen surface under arterial flow, CTI-anticoagulated whole blood; format: cell-based, human; settings: CTI 30 μg/mL, hirudin 0.0013 U/mL, aspirin 1 mM
Description: Collagen-activated platelets also provide a pro-coagulant surface and produce tissue factor, which aids in the production of thrombin (Giesen at al., 1999; Mackman, 2004; Schwertz et al., 2006).
Whole blood was anti-coagulated with CTI (30 μg/mL) to block the contact pathway, otherwise the experiments were conducted identically as in FIG. 6A. Hirudin was used as indicated at 0.0013 UImL.

p38 MAPK = assay: Collagen-induced phospho-p38 MAPK in platelets (western blot); format: cell-based, human; settings: 5 or 20 μg/ml collagen or 10 nM MMP-1; ARC 0.5 μM, aspirin 1 mM
Description: The effect of pharmacologic blockage of metalloproteases or PAR1 on collagen-dependent platelet aggregation was then tested (see FIG. 5). […] Platelets were pre-incubated for 5 min with the thrombin inhibitors PPACK (200 μM) or hirudin (1 U/ml), the Zn-chelator 1,10-phenanthroline (1,10-PA; 100 μM), the broad spectrum metalloprotease inhibitor MMP-200 (200 nM), the MMP-1 inhibitor FN-439 (3 μM), the PAR1 ligand binding site inhibitor RWJ-56110 (1 μM), the PAR1 blocking antibody (75 μg/ml), the PAR1 pepducin lipopeptides P1pal-12 (3 μM) or P1pal-7 (3 μM), the PAR4 pepducin lipopeptide P4pal-10 (3 μM), MMP-8 inhibitor (25 nM) or MMP9/13 inhibitor (10 nM).
In FIG. 5B, platelets were treated as in FIG. 5A and then lysed with Laemmli sample buffer 5 min after addition of collagen, p38 MAPK activity was then assessed by western blot with a p38 MAPK phospho-Ab and total p38 loading was determined using a p38 MAPK antibody.

Rho-GTP = assay: Collagen-induced Rho-GTP activity in platelets (western blot); format: cell-based, human; settings: 5 or 20 μg/ml collagen or 10 nM MMP-1; ARC 0.5 μM, aspirin 1 mM
Description: In FIG. 5C, platelets were treated as in FIG. 5B and then Rho GTP activity was assessed by western blot.
Representative blots are shown at the bottom of FIGS. 5B-D. Data are the mean±s.d. of three experiments. P*<0.01, #<0.05.

PAR1 [5] = biological target: T1, PAR1 (Homo sapiens, UniProt P25116); assay: Platelet shape change (decrease in light transmittance); format: cell-based; settings: washed human platelets pretreated with 2 mM EGTA
T1 construct: able to cleave PAR1 on the surface of human platelets; endogenous in cells; host or cells: gel-filtered or washed human platelets
T1 sequence (P25116 22-425): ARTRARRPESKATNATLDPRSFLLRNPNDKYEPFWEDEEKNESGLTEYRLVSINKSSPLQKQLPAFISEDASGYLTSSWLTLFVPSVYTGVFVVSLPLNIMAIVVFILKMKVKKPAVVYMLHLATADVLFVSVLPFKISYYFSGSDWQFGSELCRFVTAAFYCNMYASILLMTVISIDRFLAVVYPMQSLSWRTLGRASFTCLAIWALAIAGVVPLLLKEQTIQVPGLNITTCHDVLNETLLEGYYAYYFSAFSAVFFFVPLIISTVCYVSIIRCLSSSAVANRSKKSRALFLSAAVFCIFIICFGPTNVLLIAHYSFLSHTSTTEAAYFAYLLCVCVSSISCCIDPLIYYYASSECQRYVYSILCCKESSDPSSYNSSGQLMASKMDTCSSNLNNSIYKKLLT
Description: In FIG. 3C, the ability of the […] peptide (PR-TRAP) to induce a change in platelet shape was determined. Washed human platelets were pretreated with 2 mM EGTA and then treated with the indicated agonists in the presence or absence of 1 μM RWJ-56110 while stirring at 1100 rpm. The decrease in light transmittance is an indication of the platelet shape change reaction.
In FIG. 4B, the ability of MMP-1 to induce platelet shape change was determined. Washed human platelets were pretreated with 2 mM EGTA and then challenged with MMP-1 in the presence or absence of 1 μM RWJ-56110 while stirring at 1100 rpm. Shape change was measured as described above.

PAR1 [6] = biological target: T1, PAR1; assay: PAR1-dependent RhoA activation (Rho-GTP) in platelets by tethered-ligand peptides; format: cell-based; settings: 30 μM peptide, 5 min, 37° C.
Description: Gel-filtered human platelets, supplemented with 0.3 mg/mL fibrinogen, were treated with 0.2% DMSO vehicle, or 30 μM SFLLRN (TRAP), PR-TRAP or reversed peptide (RP-TRAP), for 5 min at 37° C. in presence or absence of 1 μM RWJ-56110 as indicated. Platelets were lysed and Rho-GTP and total Rho was determined by Western analysis as described in the Experimental Procedures. Western bands were quantified by densitometry and results expressed relative to fold-increase from basal.

PAR1 [7] = biological target: T1, PAR1; assay: p38 MAPK activation in platelets by tethered-ligand peptides; format: cell-based; settings: 5 min, 37° C.
Description: In FIG. 3B, the effect of the […] peptide (PR-TRAP) on p38 MAPK in platelets was measured. Platelets were stimulated with different concentrations of PR-TRAP, RP-TRAP or TRAP as indicated for 5 min at 37° C. Platelets were lysed with Laemmli sample buffer and proteins assessed by Western blot of p38 MAPK activity with phospho-specific p38 MAPK antibody or total p38MAPK antibody.

platelets [8] = assay: Platelet thrombus formation on collagen surface under arterial flow, heparin-anticoagulated whole blood; format: cell-based, human; settings: heparin 10 U/mL; shear rate 1,000 s-1; FN-439 3 μM, RWJ-56110 1 μM, pepducins 3 μM, aspirin 1 mM
Description: Following incubation with inhibitors, the blood was perfused over a glass slide coated with fibrillar collagen type I.
A flow chamber (Glycotech) with Type-I fibrillar collagen-coated glass slides was mounted on the stage of an IMT-2 inverted microscope (Olympus) equipped with Retiga 1300 digital camera (QImaging) and 40× objective. One of the flow chamber inlets was connected to a syringe pump (Harvard Apparatus) calibrated to create a shear rate of 1,000^s-1. The whole blood pretreated with the various pharmacologic inhibitors was then perfused over the collagen-coated glass slide. After 2-15 min of perfusion, blood was removed from the flow chamber by gentle displacement with PIPES buffer and images of 8-10 fields were acquired using OpenLab software (Improvision). Acquired images were further analyzed using NIH Image 1.63 software. Images were first sharpened and the edges of separate platelets and platelet aggregates were determined. Following the adjustment of threshold, images were converted into the binary format, and the particle analysis function was activated to highlight the regions covered by platelets with the sensitivity set to one single adherent thrombocyte. For the conversion of pixels into square micrometers, a calibration curve was built using 2.5, 6, 20, 25, and 45 μm polystyrene beads (Polyscience) using acquisition conditions identical to the experimental. The mean area of formed thrombus was determined at 7 min. Area measurements in FIG. 6B represent the mean±s.e. of three separate experiments from five different blood donors.

Compound: Bivalirudin: thrombin inhibitor (Angiomax)
- mean arterial occlusion time [1]: 20 min

Compound: hirudin
- block of thrombin-induced release of N-terminal cleavage peptide of PAR1 (PAR1 [2]; 3 nM thrombin, 0.00013 U hirudin): blocked
- inhibition (loss) of collagen-induced platelet aggregation (platelets [3]): no effect
- effect on size of platelet micro-thrombi on collagen surfaces (platelets [4]): no effect

Compound: CSCCNc1nc(SCCC(F)(F)F)nc2c1ncn2[C@@H]1O[C@H](COP(=O)(O)OP(=O)(O)C(Cl)(Cl)P(=O)(O)O)[C@@H](O)[C@H]1O [AR-C69931MX]
- block of collagen-induced release of PAR1 N-terminal peptide (PAR1 [2]; 5 μg/ml collagen, 10 min, 37° C., Ab 20 μg/ml, ARC 0.5 μM, ASA 1 mM): no effect
- suppression of aggregation to collagen (platelets [3]; ARC 0.5 μM, aspirin 1 mM): could still suppress
- effect on activation of phospho-p38 MAPK (p38 MAPK): no effect
- effect on activation of Rho-GTP (Rho-GTP): no effect

Compound: NC(N)=NCCC[C@H](NC(=O)[C@@H]1CCCN1C(=O)[C@H](N)Cc1ccccc1)C(=O)CCl [PPACK]
- inhibition (loss) of collagen-induced platelet aggregation (platelets [3]): no effect

- agonist activity, platelet shape change (PAR1 [5]): nearly no activity
Compound: DPR-TRAP: peptide corresponding to cleavage at L38↓D39PRSFLLRN (DPRSFLLRN; PAR1 N-terminal extracellular mutant)

Compound: P4pal-10: PAR4 pepducin lipopeptide (SGRRYGHALR; also: lipopeptide ('pal'), lipid and site not given here)
- inhibition (loss) of collagen-induced platelet aggregation (platelets [3]): ~10%

- agonist activity, PAR1-dependent Rho signaling in platelets (PAR1 [6]): did not stimulate
- agonist activity, p38 MAPK signaling in platelets (PAR1 [7]): did not stimulate
- agonist activity, platelet shape change (PAR1 [5]): did not stimulate
Compound: RP-TRAP: control peptide in which the first two amino acid residues were reversed (RPSFLLRN; PAR1 N-terminal extracellular mutant)

- agonist activity, PAR1-dependent Rho signaling in platelets (PAR1 [6]): full agonist
- agonist activity, p38 MAPK signaling in platelets (PAR1 [7]): full agonist
- agonist activity, platelet shape change (PAR1 [5]): activated changes in platelet shape
Compound: PR-TRAP: synthetic peptide PRSFLLRN (SEQ ID NO:1), MMP1-generated tethered ligand of PAR1 (listed as Homo sapiens)

Compound: c1cnc2c(c1)ccc1cccnc12 [1,10-phenanthroline]
- inhibition (loss) of collagen-induced platelet aggregation (platelets [3]): 80%

- agonist activity, platelet shape change (PAR1 [5]): partial agonist activity
Compound: R-TRAP: peptide corresponding to cleavage at LDP40↓R41SFLLRN (RSFLLRN)

Compound: P1pal-12: PAR1 i3 loop pepducin lipopeptide, RCLSSSAVANRS (SEQ ID NO. 3), palmitate (also: palmitate, site not given here)
- inhibition (loss) of collagen-induced platelet aggregation (platelets [3]): identical levels of inhibition as blocking MMP-1
- attenuation of growth rate and size of platelet aggregate strings (platelets [8]): ~75%
